In data set [1] the target is T1, TFIIH (Homo sapiens, UniProt P19447).
T1 construct: made in house
Put plainly: DNA-dependent ATPase activity assay of TFIIH. It counts as biochemical. The procedure: ATPase activity assay. The TFIIH complex was purified and its DNA-dependent ATPase assay was performed as previously described (Titov et al. (2011) Nat. Chem. Biol. 7:182-88). Briefly, a 10-μl reaction mixture contained 20 mM Tris (pH 7.9), 4 mM MgCl2, 1 μM of ATP, 0.1 μCi [^γ-^32P]ATP (3000 Ci/mmol), 100 μg/ml BSA, 100 nM RNA Polymerase II promoter positive control DNA, 1 nM TFIIH and indicated concentrations of triptolide or its analogs. The reactions were started by either addition of TFIIH for 2 hr and stopped by addition of 2 μl of 0.5 M EDTA. An aliquot of 1 μl reaction mixture was spotted on PEI-cellulose (sigma) and the chromatogram was developed with 0.5 M LiCi and 1 M HCOOH. The percent of ATP hydrolysis was quantified using a Typhoon FLA 9500 Variable Imager (GE Healthcare).

Data set [2] in a line: Stability of glutriptolides in human serum (HPLC-MS). In kind it is in vitro ADME. To be noted: incubation for up to 72 h. The procedure:
Stability of glutriptolides in human serum. Human serum (Sigma, 10% in DMEM media) was treated with 10 μM drug (triptolide or glutriptolides) at room temperature for various time points. The incubation was stopped by placing samples on dry ice followed by overnight storage in −80° C. Frozen samples were then lyophilized and reconstituted in DMSO at room temperature for an hour. Samples were centrifuged at 12,000 RPM for 10 minutes and supernatants loaded into an HPLC-MS with the following conditions: (Varian pursuit XR5 Diphenyl 150×4.6 mm; A phase: Millipore water with 0.1% HCOOH; B phase: Acetonitrile with 0.1% HCOOH; 0-6 min: […]; 6-24 min: 5% B-100% B; 24-28 min: 100% B; 28-29 min: 100% B5% B; 29-30 min: 5% B).

The test system of data set [3] is DLD-1 GLUT1 knockout (GLUT1 KO) cells. Put plainly: DLD-1 GLUT1 knockout proliferation under hypoxia or normoxia. It counts as cell-based, human.
The test system of data set [4] is HeLa. Put plainly: HeLa proliferation under hypoxia ([3H]-thymidine incorporation). In kind it is cell-based, human. Particulars: 1% O2, 48 h post treatment.
Data set [5] concerns MDA MB231 cells. Put plainly: MDA MB231 proliferation under hypoxia ([3H]-thymidine incorporation). In kind it is cell-based, human. To be noted: MDA MB231, 1% O2, 48 h post treatment.
Data set [6] concerns MCF-7. Put plainly: MCF-7 proliferation under hypoxia ([3H]-thymidine incorporation). In kind it is cell-based, human. To be noted: MCF-7, 1% O2, 48 h post treatment. On the technique in general: Uptake of a labelled nucleoside into DNA is a usual measure of proliferation.
The subject of data set [7] is RPB1 (catalytic subunit of RNAPII). Put plainly: RPB1 (RNAPII) degradation in HeLa cells, immunostaining and western blot. It counts as cell-based, human. Also on record: endogenous RNAPII (RPB1) level: unit of the concentration uncertain. Particulars: 1 (unit uncertain) compound 1, 24 h. The procedure:
(§1) Western blot analysis. Whole cell lysates were prepared by adding lysis buffer [4% SDS, 20% glycerol, 10% 2-mercaptoethanol, 0.004% bromophenol blue, 0.125 M Tris-HCl (pH 6.8)] to the cell pellets for 30 minutes in ice followed by centrifugation at 12,000×g for 10 minutes then boiling for 5 minutes. For isolation of cytosolic and mitochondrial fractions of cytochrome C, cell pellets were resuspended in CLAMI buffer (250 mM sucrose, 70 mM KCl, […] digitonin in 1×PBS, protease inhibitor cocktail (1 tablet/10 ml CLAMI buffer)) then incubated on ice for 5 minutes. After centrifugation at 12,000×g for 5 minutes at 4° C., supernatant (cytoplasmic fraction) was collected and the pellet resuspended in lysis buffer as described above. Proteins were then separated by SDS-PAGE and transferred to nitrocellulose membranes (Bio-Rad). After blocking at room temperature for 1 h, membranes were incubated at 4′C overnight with the primary antibodies including anti-Rpb1 (Santa Cruz Biotechnology), anti-XPB (Biotechne), anti-Actin (Developmental Studies Hybridoma Bank), anti-GAPDH (Santa Cruz Biotechnology), anti-cytochrome C (Santa Cruz Biotechnology), anti-PARP1 (Santa Cruz Biotechnology), anti-cleaved caspase 3 (Cell Signaling Technology), anti-VDAC (ProteinTech), anti-HIF-1[…] (BD sciences), and anti-GLUT1 (Santa Cruz Biotechnology) antibodies followed by incubation with horseradish peroxidase-conjugated anti-mouse or anti-rabbit IgG (GE Healthcare) at room temperature for 2 hours. Antibody-protein complexes were detected using enhanced chemiluminescence (ECL) immunoblotting detection reagent (EMD Millipore).
(§2) Immunocytochemistry and cytochemistry. […] Glucose uptake was monitored by incubating cells in 200 μM 2-NBDG (ThermoFisher) for 6 hours prior to fixation. Fluorescence was observed under the Nikon Eclipse TE200 Inverted microscope (Nikon Instruments Inc., Melville, N.Y., USA). […] Rpb1 levels were measured using the MEASURE feature of ImageJ where all the background signals were subtracted from the intergrated density of nuclear Rpb1.
On the technique in general: A western blot detects proteins with antibodies after separation by electrophoresis.

For data set [8], the system named is RPB1 (RNAPII) in PC3 cells. Put plainly: RPB1 degradation in PC3 cells under hypoxia, immunocytochemistry and western blot. Particulars: PC3, hypoxic but not normoxic conditions, 3 µM compound 1. In kind it is cell-based, human. How it is done: Western blot analysis. Whole cell lysates were prepared by adding lysis buffer [4% SDS, 20% glycerol, 10% 2-mercaptoethanol, 0.004% bromophenol blue, 0.125 M Tris-HCl (pH 6.8)] to the cell pellets for 30 minutes in ice followed by centrifugation at 12,000×g for 10 minutes then boiling for 5 minutes. For isolation of cytosolic and mitochondrial fractions of cytochrome C, cell pellets were resuspended in CLAMI buffer (250 mM sucrose, 70 mM KCl, […] digitonin in 1×PBS, protease inhibitor cocktail (1 tablet/10 ml CLAMI buffer)) then incubated on ice for 5 minutes. After centrifugation at 12,000×g for 5 minutes at 4° C., supernatant (cytoplasmic fraction) was collected and the pellet resuspended in lysis buffer as described above. Proteins were then separated by SDS-PAGE and transferred to nitrocellulose membranes (Bio-Rad). […] Antibody-protein complexes were detected using enhanced chemiluminescence (ECL) immunoblotting detection reagent (EMD Millipore).
as §2

Data set [9] has as its system HeLa cells. Put plainly: Apoptosis signaling in HeLa cells (nuclear fragmentation, cytochrome c, caspase 3, PARP1). In kind it is cell-based, human. Details: percentage of cells with nuclear fragmentation / cytochrome c release from mitochondria to cytosol: unit of the concentration uncertain. To be noted: for percentage of cells with nuclear fragmentation: control 6%. The procedure: as §1
Immunocytochemistry and cytochemistry. HeLa or PC3 cells (2×10^5) were seeded on a MatTek glass bottom culture dish (Fisher Scientific, Pittsburgh, Pa., USA) and allowed to adhere for 24 h. Cells were then treated with either DMSO or drugs for 6 or 24 h then fixed with 4% paraformaldehyde, permeabilized using 1×PBS with 0.5% triton X 100 then probed for endogenous RNA Polymerase II catalytic subunit Rpb1 or HIF-1α using anti-RNAPII (Santa Cruz Biotechnology) and anti-HIF-1α (BD sciences) antibodies, respectively. Detection was then done using anti-mouse Alexa Fluor 488 (Invitrogen). For nuclear staining, fixed and permeabilized cells were incubated in DAPI (ThermoFisher) or Hoechst 33258 (Sigma) for 30 minutes prior to imaging. Glucose uptake was monitored by incubating cells in 200 μM 2-NBDG (ThermoFisher) for 6 hours prior to fixation. Fluorescence was observed under the Nikon Eclipse TE200 Inverted microscope (Nikon Instruments Inc., Melville, N.Y., USA). ImageJ software (NIH, Bethesda, Md., USA; http://imagej.nih.gov/ij/index.html) was used to measure intracellular protein levels in immuno-cytochemistry samples (Li et al. (2015) Toxicological Sciences: an Official Journal of the Society of Toxicology 143:196-208). Rpb1 levels were measured using the MEASURE feature of ImageJ where all the background signals were subtracted from the intergrated density of nuclear Rpb1.

Setting [10] is: HeLa, 3 (unit uncertain) compound 1.

“Also recorded” adds a separate entry of the source.

Usually IC50 stands for the midpoint of a concentration-inhibition curve.

As for `CC(C)[C@]12O[C@H]1[C@@H]1O[C@]13[C@]1(O[C@H]1C[C@H]1C4=C(CC[C@@]13C)C(=O)OC4)[C@@H]2OC(=O)CCCO[C@@H]1OC(CO)[C@@H](O)C(O)C1O` (stereo in doubt) [Compound 1], the “inhibition of ATPase activity of TFIIH” value in data set [1] is “only a small fraction of the activity was affected; also recorded: does not inhibit”. For the same compound, the “stability in human serum” value in data set [2] was “remained largely intact”. This compound also showed an IC50 in data set [3] (Homo sapiens, DLD-1, GLUT1 knockout cell line, hypoxic conditions (1% oxygen)) of 2500 nM. For the same compound, in data set [3] (normoxia (20% oxygen)), the “difference in sensitivity between DLD-1 WT and GLUT1 KO” value was “no difference in sensitivity”. Further, the “effect of hypoxia on anti-proliferative effect” value is recorded as “enhances the anti-proliferative effect” in data set [4], “enhances the anti-proliferative effect” in data set [5] and “modest enhancement” in data set [6]. Further, the “endogenous RNAPII (RPB1) level” value in data set [7] is “depletes endogenous RNA polymerase II”. Moreover, the “onset of RNAPII (RPB1) degradation” value in data set [8] is reported as “observed as early as 6 h”. Further, the “percentage of cells with nuclear fragmentation” value in data set [9] (HeLa, 1 (unit uncertain) compound 1) was 23%; in [9] (setting [10]), 53%. The “cytochrome c release from mitochondria to cytosol” value in [9] (setting [10]) was “triggers the release of cytochrome c”. Besides, in data set [9] (HeLa, western blot), the caspase-3 activation result was “activated caspase-3 dose dependently”. The PARP1 cleavage result in [9] (increasing concentrations of compound 1, western blot) is on record as “Pronounced PARP1 cleavage”.

The values above are taken from US20230134986A1, “GLUCOSE TRIPTOLIDE CONJUGATES AND USES THEREOF” (The Johns Hopkins University, priority 2020, published 2023).
